The values below come from US20220009894A1, “1,2,3,4-TETRAHYDROQUINOXALINE DERIVATIVE, PREPARATION METHOD THEREFOR AND APPLICATION THEREOF” (Abbisko Therapeutics Co., Ltd., priority 2019, published 2022).

The target in one test is T1, RORγt (Homo sapiens, UniProt P51449).
T1 construct: The plasmid of pFN26A-RORγt-LBD and pG14.35 (Promega, Cat. No. E1370) were co-transfected into HEK 293 cells; expressed in transfected cells; host or cells: HEK 293 cells (Cat. No. GNHu18)
T1 sequence (P51449 269-508 limits assumed): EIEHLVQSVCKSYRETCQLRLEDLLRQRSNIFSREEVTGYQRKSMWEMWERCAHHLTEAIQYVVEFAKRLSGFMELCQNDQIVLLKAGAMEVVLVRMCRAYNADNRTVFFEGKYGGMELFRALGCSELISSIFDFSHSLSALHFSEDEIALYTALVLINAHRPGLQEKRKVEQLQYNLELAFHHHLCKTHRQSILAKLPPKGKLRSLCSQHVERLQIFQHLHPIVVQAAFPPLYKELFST
The test can be described thus: RORγt cellular reporter gene detection assay.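 For Cellular Reporter Assay Amax: Ursolic Acid added as 5 µL of 20 µM medium per well.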 Type of test: cell-based. The conditions noted are these: 24 hrs; for EC50: HEK 293 cells co-transfected with pFN26A-RORγt-LBD and pG14.35, in presence of antagonist Ursolic acid, top concentration 50 μM; for Cellular Reporter Assay Amax: upper activation limit, HEK 293 cells, in presence of antagonist Ursolic acid. The procedure:
II. RORγt Cellular Reporter Gene Detection Assay
In this experiment, RORγt Reporter Gene Detection method was used to evaluate the activation and specificity of compounds to RORγt in cells. The plasmid of pFN26A-RORγt-LBD and pG14.35 (Promega, Cat. No. E1370) were co-transfected into HEK 293 cells (Cat. No. GNHu18). The efficacy of compounds was evaluated with the presence of an antagonist Ursolic acid (Selleck, Cat. No. S2370-100 mg). The specific experimental process was as follow: • 1. The plasmids-co-transfected cells were inoculated into a 96-well plate (Corning, Cat. No 3610) in a fresh DMEM medium (Gibco, cat. No. 1773536) containing 10% fetal bovine serum (Gibco, Cat. No. 10099-141) at 30000 cells/40 μL/well; • 2. 5 μL of medium containing 20 μM Ursolic acid was added thereto; • 3. The dose effect was evaluated by a 4-fold dilution of the test compound starting from 50 μM; • 4. 5 μL of medium containing a compound concentration of 10-fold of its final test concentration was added; • 5. After the cells were incubated at 37° C. and 5% CO2 for 24 hrs, 50 μL of detection reagent was added to detect firefly fluorescence using PerkinElmerEnVision, and 50 μL of the second detection reagent was added to detect sea kidney fluorescence; • 6. A four-parameter curve simulated in GraphPad Prism was used to determine the concentration for 50% activation (EC50) and the upper activation limit (Amax) for each compound.

The target in a further test is T2, RORγt-LBD (Homo sapiens, UniProt P51449).
T2 sequence (P51449 269-508 limits assumed): T1 sequence (P51449 269-508 limits assumed)
Description: Time-resolved fluorescence resonance energy-transfer assay (TR-FRET), co-activator peptide recruitment. The arrangement: TR-FRET Biochemical Amax: unit not given here. In kind it is biochemical. The note with it: for EC50: His-RORγt-LBD 30 nM, SRC peptide 500 nM, agonistic activity, averages of one or more measurements, read-out: TR-FRET Biochemical EC50/; for TR-FRET Biochemical Amax: upper activation limit, His-RORγt-LBD, SRC peptide. The source says: I. Time-Resolved Fluorescence Resonance Energy-Transfer Assay (TR-FRET)
This experiment was a screening experiment for RORγt nuclear receptor agonists based on TR-FRET technology. When His-labeled RORγt-LBD receptor binds to receptor agonists, it may increase the recruitment of biotin-labeled co-activator peptides. Europium-His-RORγt-LBD is indirectly labeled by donor (Eu) by binding to Eu-anti-His antibody. Once Eu is activated by an energy source (such as flashlight or laser), the energy will be transferred to the co-activator indirectly labeled by allophycocyanin by binding of allophycocyanin-streptavidin and biotin-labeled co-activator. • 1. 10× buffer (500 mM Tris-HCl, 500 mM KCl, and 10 mM Na-EDTA) was prepared, pH value was adjusted to 7.0. The buffer was stored at 4° C. for later use and was restored to normal temperature before experiment; • 2. The 10× buffer was diluted to 1× with pure water. Final concentration of 0.01% Triton X-100 and 1 mM DTT (dithiothreitol) were added to prepare the assay buffer; • 3. DMSO was used to prepare 1000× compound stock solution. The compound solution was serial-diluted in 5-fold for 7 concentrations from the top concentration of 1000 nM/10000 nM. Then the 10× compound solution was prepared with assay buffer. An amount of 2 μL was aliquoted into the 20 μL system; • 4. 5×RORγt-LBD protein solution was unfreezed, and a solution of 5× concentration was prepared with assay buffer to obtain a final concentration of 30 nM. The whole operation was carried out on ice; • 5. 5×SRC peptide was unfreezed, and a solution of 5× concentration was prepared with assay buffer to obtain a final concentration of 500 nM. The whole operation was carried out on ice; • 6. 4 μL/well of RORγt-LBD receptor was added into the testing wells of 384-well plate, and the same amount of assay buffer was added to the control wells of non-RORγt-LBD group; • 7. 2 μL of compound was added into each well of 384-well plate; • 8. 4 μL of SRC peptide was added into each well of 384-well plate; • 9. 2× Eu-anti-6× His/APC-Streptavidin was diluted with Lance detection buffer to a final concentration of 0.25 nM and 5 nM, respectively, and then 10 μL of 2× Eu-anti-6× His/APC-Streptavidin was added into each well of 384-well plate; • 10. The mixed solution was incubated at 4° C. overnight; • 11. On the morning of the next day, the 384-well plate was incubated at room temperature for 1 hr. Then the corresponding signal values were read with PerkinElmer EnVision at a wavelength of 665/615 […]. The agonistic activity of the corresponding compound was calculated with Graphpad Prism 7.0 software.

For the molecule `CN1CCN(S(=O)(=O)c2cccc(C(F)(F)F)c2)c2cc(-c3cc(F)cc(OC(F)F)c3)ccc21` [Example 1, 6-(3-(difluoromethoxy)-5-fluorophenyl)-1-methyl-4-((3-(trifluoromethyl)phenyl)sulfonyl)-1,2,3,4-tetrahydroquinoxaline], at RORγt, the EC50 worked out at 518 nM and the “Cellular Reporter Assay Amax” value was 3.3. On RORγt-LBD, the EC50 is 18.4 nM and the “TR-FRET Biochemical Amax” value is reported as 1.61.
For `N#Cc1cc(F)cc(-c2ccc3c(c2)N(S(=O)(=O)c2cccc(C(F)(F)F)c2)C[C@@H]2CN(CC(=O)O)CCN32)c1` [Example 95, (S)-2-(8-(3-cyano-5-fluorophe-nyl)-6-((3-(trifluoromethyl)phe-nyl)sulfonyl)-1,2,4,4a,5,6-hexa-hydro-3H-pyrazino[1,2-a]quin-oxalin-3-yl)acetic acid], in that order: 649 nM, 1.4, 41.9 nM and 0.40.
The like results for `N#Cc1cc(Cl)cc(-c2ccc3c(c2)N(S(=O)(=O)c2cccc(C(F)(F)F)c2)C[C@@H]2CN(CC(=O)O)CCN32)c1` [Example 97, (S)-2-(8-(3-chloro-5-cyanophe-nyl)-6-((3-(trifluoromethyl)phe-nyl)sulfonyl)-1,2,4,4a,5,6-hexa-hydro-3H-pyrazino[1,2-a]quinox-alin-3-yl)acetic acid] were, in that order, 605 nM, 2.5, 37 nM and 0.61.
Regarding `O=C(O)CCOC1CCN2c3ccc(-c4cc(F)cc(OC(F)F)c4)cc3N(S(=O)(=O)c3cccc(C(F)(F)F)c3)C[C@@H]2C1` (stereo partly drawn) [Example 109, 3-(((6aS)-3-(3-(difluoromethoxy)-5-fluorophenyl)-5-((3-(trifluoromethyl)phenyl)sulfonyl)-6,6a,7,8,9,10-hexahydro-5H-pyrido[1,2-a]quinoxalin-8-yl)oxy)propanoic acid], on RORγt, the EC50 was 468 nM and the “Cellular Reporter Assay Amax” value is 5.9. In addition, at RORγt-LBD, the EC50 came out at 17.5 nM and the “TR-FRET Biochemical Amax” value is given as 0.65.
For `C/C(=C\c1ccc2c(c1)N(S(=O)(=O)c1cccc(C(F)(F)F)c1)C[C@@H]1CN(C(C)(C)C(=O)O)CCN21)c1c(F)cccc1Cl` [Example 56, (S,E)-2-(8-(2-(2-chloro-6-fluoro-phenyl)prop-1-en-1-yl)-6-((3-(trifluoromethyl)phenyl)sulfo-nyl)-1,2,4,4a,5,6-hexahydro-3H-pyrazino[1,2-a]quinoxalin-3-yl)-2-methylpropanoic acid], in that order: 622 nM, 3.2, 44.5 nM and 0.71.
For `O=S(=O)(c1cccc(C(F)(F)F)c1)N1CCNc2ccc(-c3cc(F)cc(OC(F)F)c3)cc21` [Example 2, 7-(3-(difluoromethoxy)-5-fluorophenyl)-1-((3-(trifluoromethyl)phenyl)sulfonyl)-1,2,3,4-tetrahydroquinoxaline], in that order: 163 nM, 3.1, 18.1 nM and 1.85.
As for `C/C(=C\c1ccc2c(c1)N(S(=O)(=O)c1cccc(C(F)(F)F)c1)C[C@@H]1CN(C(C)C(=O)O)CCN21)c1c(F)cccc1Cl` (stereo partly drawn) [Example 25, 2-((S)-8-((E)-2-(2-chloro-6-fluorophenyl)prop-1-en-1-yl)-6-((3-(trifluoromethyl)phenyl)sulfonyl)-1,2,4,4a,5,6-hexahydro-3H-pyrazino[1,2-a]quinoxalin-3-yl) propanoic acid], on RORγt, the EC50 was found to be 441 nM and the “Cellular Reporter Assay Amax” value is 4.4. Further, at RORγt-LBD, the EC50 was 6.35 nM and the “TR-FRET Biochemical Amax” value stood at 0.84.
The like results for `CN1c2ccc(/C=C/c3c(Cl)cccc3C(F)(F)F)cc2N(S(=O)(=O)c2cccc(C(F)(F)F)c2)C[C@@H]1CCC(=O)O` [Example 6, (S,E)-3-(6-(2-chloro-6-(tri-fluoromethyl)styryl)-1-meth-yl-4-((3-(trifluoromethyl)phenyl)sulfonyl)-1,2,3,4-tetrahydroquinoxalin-2-yl) propanoic acid] were, in that order, 528 nM, 4.2, 16.1 nM and 1.54.
`N#CC(CO)(CO)N1CCN2c3ccc(-c4cc(F)cc(OC(F)F)c4)cc3N(S(=O)(=O)c3cccc(C(F)(F)F)c3)C[C@@H]2C1` [Example 74, (S)-2-(8-(3-(difluoromethoxy)-5-fluorophenyl)-6-((3-(trifluoromethyl)phenyl)sulfonyl)-1,2,4,4a,5,6-hexahydro-3H-pyrazino[1,2-a]quinoxalin-3-yl)-3-hydroxy-2-(hydroxymethyl)propanenitrile]: on RORγt, the EC50 stood at 1040 nM and the “Cellular Reporter Assay Amax” value amounted to 6.2. Also, at RORγt-LBD, the EC50 came out at 45.1 nM and the “TR-FRET Biochemical Amax” value worked out at 1.20.
The like results for `C/C(=C\c1ccc2c(c1)N(S(=O)(=O)c1cccc(C(F)(F)F)c1)C[C@@H]1CN(C3(C(N)=O)CCC3)CCN21)c1c(F)cccc1Cl` [Example 79, (S,E)-1-(8-(2-(2-chloro-6-fluorophenyl)prop-1-en-1-yl)-6-((3-(trifluoromethyl)phenyl)sulfonyl)-1,2,4,4a,5,6-hexahydro-3H-pyrazino[1,2-a]quinoxalin-3-yl)cyclobutane-1-carboxamide] were, in that order, 267 nM, 2.8, 28.2 nM and 1.15.
The like results for `C/C(=C\c1ccc2c(c1)N(S(=O)(=O)c1cccc(C(F)(F)F)c1)C[C@@H]1CN(CC(=O)O)CCN21)c1c(F)cccc1Cl` [Example 21, (S,E)-2-(8-(2-(2-chloro-6-fluoro-phenyl)prop-1-en-1-yl)-6-((3-(trifluoromethyl)phenyl)sulfonyl)-1,2,4,4a,5,6-hexa-hydro-3H-pyrazino[1,2-a]quinoxalin-3-yl)acetic acid] were, in that order, 273 nM, 5.5, 17.6 nM and 0.94.
`O=S(=O)(c1cccc(C(F)(F)F)c1)N1C[C@H]2COCCN2c2ccc(-c3cc(F)cc(OC(F)F)c3)cc21` [Example 99]: at RORγt, the EC50 came out at 4840 nM and the “Cellular Reporter Assay Amax” value stood at 6.3. Further, at RORγt-LBD, the EC50 is 40.3 nM and the “TR-FRET Biochemical Amax” value is recorded as 0.74.
